This is an account of results in patent US7019034B2, “Compositions and methods for reducing serum glucose and triglyceride levels in diabetic mammals” (Allergan, Inc., priority 2003, dated 2006).

Assay [1] deals with T1, RARβ (Homo sapiens, UniProt P10826).
T1 sequence (P10826 183-417 limits assumed): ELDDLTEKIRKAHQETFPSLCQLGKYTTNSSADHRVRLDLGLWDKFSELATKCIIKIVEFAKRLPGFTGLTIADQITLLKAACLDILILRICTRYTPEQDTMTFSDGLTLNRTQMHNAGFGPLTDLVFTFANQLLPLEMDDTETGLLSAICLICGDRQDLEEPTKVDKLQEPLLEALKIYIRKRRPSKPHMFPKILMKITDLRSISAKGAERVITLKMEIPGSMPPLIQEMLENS
Put plainly: chimeric receptor transactivation assay, RARβ. Format: cell-based. Particulars: for EC50: NA = not active at all as an agonist, read-out: RAR Trans. EC50 β; for RAR β efficacy in percentage as compared to the standard compound: number in brackets. An excerpt: The specification of U.S. Pat. No. 5,455,265 is hereby expressly incorporated by reference.
Table 1 discloses the activity of certain exemplary compounds of the invention in the above-described receptor transactivation and binding assays. Particularly, the transactivation data pertaining to activation of the RAR receptors were obtained in the chimeric assay, and the transactivation data pertaining to the activation of RXR receptors were obtained in the holoreceptor assay.
Efficacy in a transactivation assay is expressed as a percentage of the maximum potency attained by the compound compared to a standard which, in this case, is the compound named (2E,4E,1′S,2′S)-3-methyl-5-[2′-methyl-2′-(5,5,8,8-tetramethyl-5,6,7,8-tetrahydro-naphthalen-2-yl)-cyclopropyl]-penta-2,4-dienoic acid.
(§1) In Table 1 NA stands for not active at all as an agonist. ND stands for not determined. The first row of numbers pertaining to each compound is the measured EC50 number. […] The third row of numbers pertaining to each compound is the binding Ki number.

Assay [2] has as its target T2, RARβ (Homo sapiens, UniProt P10826).
T2 sequence (P10826 1-455): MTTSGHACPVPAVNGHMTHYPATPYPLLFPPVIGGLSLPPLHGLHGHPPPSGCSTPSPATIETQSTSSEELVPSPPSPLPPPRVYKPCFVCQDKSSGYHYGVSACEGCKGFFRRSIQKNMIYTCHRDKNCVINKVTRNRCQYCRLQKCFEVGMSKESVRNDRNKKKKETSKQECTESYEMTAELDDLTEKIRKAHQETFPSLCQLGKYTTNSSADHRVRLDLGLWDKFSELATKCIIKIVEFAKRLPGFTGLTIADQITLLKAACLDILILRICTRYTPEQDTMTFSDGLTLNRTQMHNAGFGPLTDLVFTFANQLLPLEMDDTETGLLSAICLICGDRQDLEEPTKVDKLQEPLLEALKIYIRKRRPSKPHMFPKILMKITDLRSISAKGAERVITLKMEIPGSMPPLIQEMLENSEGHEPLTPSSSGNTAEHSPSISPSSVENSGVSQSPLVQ
Put plainly: ligand binding assay, RARβ. Particulars: read-out: RAR Bind. Ki β.
Excerpt: (§2) A holoreceptor transactivation assay and a ligand binding assay which measure the antagonist/agonist like activity of the compounds of the invention, or their ability to bind to the several retinoid receptor subtypes, respectively, are described in published PCT Application No. WO WO93/11755 (particularly on pages 30–33 and 37–41) published on Jun. 24, 1993, the specification of which is also incorporated herein by reference. […] The results obtained in this assay are expressed in EC50 numbers, as they are also in the chimeric receptor transactivation assay. The results of the ligand binding assay are expressed in Ki numbers. (See Cheng et al. Biochemical Pharmacology Vol. 22 pp 3099–3108, expressly incorporated herein by reference.)
as §1

Assay [3] has as its target T3, RXRβ (UniProt P28704).
T3 sequence (P28704 1-520): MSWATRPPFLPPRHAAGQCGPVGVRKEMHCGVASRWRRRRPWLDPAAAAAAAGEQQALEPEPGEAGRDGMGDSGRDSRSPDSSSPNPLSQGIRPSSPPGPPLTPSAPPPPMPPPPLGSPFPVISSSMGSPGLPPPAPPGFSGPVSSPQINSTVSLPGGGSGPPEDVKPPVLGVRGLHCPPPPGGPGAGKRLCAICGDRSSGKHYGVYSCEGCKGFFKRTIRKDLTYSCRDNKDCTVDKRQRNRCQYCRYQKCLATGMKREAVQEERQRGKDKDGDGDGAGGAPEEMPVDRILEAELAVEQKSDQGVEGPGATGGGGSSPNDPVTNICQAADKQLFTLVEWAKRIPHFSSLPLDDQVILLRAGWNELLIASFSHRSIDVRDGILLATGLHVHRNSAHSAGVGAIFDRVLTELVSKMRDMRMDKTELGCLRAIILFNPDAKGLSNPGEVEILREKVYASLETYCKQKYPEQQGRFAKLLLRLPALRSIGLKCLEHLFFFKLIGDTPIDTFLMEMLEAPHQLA
Kind of assay: ligand binding assay, RXRβ. Particulars: read-out: RXR Bind Ki β.
Excerpt: as §2, §1

Assay [4] addresses T3, RXRβ. Kind of assay: holoreceptor transactivation assay, RXRβ. The assay is classed as cell-based. Particulars: for RXR β efficacy in percentage as compared to the standard compound / EC50: holoreceptor assay; for RXR β efficacy in percentage as compared to the standard compound: number in brackets; for EC50: read-out: RXR Trans. EC50 β; for efficacy in activating RXRβ compared with RXRα and RXRγ subtypes (in words): transactivation, Table 1.
Excerpt: The results obtained in this assay are expressed in EC50 numbers, as they are also in the chimeric receptor transactivation assay. The results of the ligand binding assay are expressed in Ki numbers.
Particularly, the transactivation data pertaining to activation of the RAR receptors were obtained in the chimeric assay, and the transactivation data pertaining to the activation of RXR receptors were obtained in the holoreceptor assay.
as §1

Another assay has as its target T4, RXRα (Homo sapiens, UniProt P19793).
T4 construct: expressed in transfected cells
T4 sequence (P19793 1-462): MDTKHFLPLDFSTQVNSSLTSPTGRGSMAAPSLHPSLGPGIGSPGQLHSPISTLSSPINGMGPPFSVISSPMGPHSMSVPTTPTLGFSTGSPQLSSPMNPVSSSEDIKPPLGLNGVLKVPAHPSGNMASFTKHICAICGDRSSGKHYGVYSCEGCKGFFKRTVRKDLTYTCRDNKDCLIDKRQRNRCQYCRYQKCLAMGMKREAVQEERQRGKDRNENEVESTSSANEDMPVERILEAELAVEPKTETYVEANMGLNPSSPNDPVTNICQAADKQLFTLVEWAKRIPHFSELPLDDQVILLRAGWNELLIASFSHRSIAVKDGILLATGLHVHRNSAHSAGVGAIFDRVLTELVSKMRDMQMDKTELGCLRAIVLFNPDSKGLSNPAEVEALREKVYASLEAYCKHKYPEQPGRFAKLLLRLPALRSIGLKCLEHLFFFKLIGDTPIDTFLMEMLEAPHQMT
Put plainly: ligand binding assay, RXRα. Particulars: read-out: RXR Bind Ki α.
Excerpt: as §2, §1

As for `CCOc1cc2c(cc1\C(CC)=C(F)/C=C/C(C)=C/C(=O)O)C(C)(C)CCC2(C)C` [Compound 2, (2E,4E,6E)-7-(3-Ethoxy-5,5,8,8-tetramethyl-5,6,7,8-tetrahydronaphthalen-2-yl)-6-fluoro-3-methylnona-2,4,6-trienoic acid], the EC50 at RARβ [1] amounted to 250 nM; on RXRβ [4] it was 36 nM. Further, at RARβ [1], the “RAR β efficacy in percentage as compared to the standard compound” value amounted to 11%. Moreover, the inhibition constant (Ki) at RARβ [2] stood at 540 nM; on RXRβ [3], 23 nM; at RXRα, 22 nM. Also, on RXRβ [4], the “RXR β efficacy in percentage as compared to the standard compound” value is listed as 46%. On RXRβ [4], the “efficacy in activating RXRβ compared with RXRα and RXRγ subtypes (in words)” value is given as “significantly more effective in activating the RXRβ subtype”.

Take `CCCOc1cc2c(cc1\C(C)=C(F)/C=C/C(C)=C/C(=O)O)C(C)(C)CCC2(C)C` [Compound 4]: at RARβ [1], the concentration for a half-maximal effect (EC50) came to 185 nM and the “RAR β efficacy in percentage as compared to the standard compound” value amounted to 16%. The inhibitory constant (Ki) at RARβ [2] was 490 nM. Further, the inhibition constant (Ki) at RXRβ [3] worked out at 57 nM. On RXRβ [4], the “RXR β efficacy in percentage as compared to the standard compound” value stood at 24%; the EC50 was 62 nM; the “efficacy in activating RXRβ compared with RXRα and RXRγ subtypes (in words)” value is listed as “significantly more effective in activating the RXRβ subtype”. Moreover, the Ki at RXRα came out at 6 nM.

Broadly, the EC50 is the midpoint of the concentration-response curve. Usually Ki stands for a dissociation constant, usually derived from enzyme kinetics or from competition with a known ligand.
